Results on one molecule are retold here after US20100317642A1, “PHARMACEUTICAL COMPOSITION OF ORLISTAT” (INVENTIS DDS PVT LIMITED, priority 2007, published 2010).

Data set [1] in a line: Effect of elevated temperature on appearance and handling properties (hot air oven, Petri dishes). The note with it: for Appearance and handling properties at elevated temperature: hot air oven. The data set is classed as physicochemical. The text has this: The affect of elevated temperature on appearance and handling properties on the orlistat compositions of this invention was studied by slowly increasing the temperature of a hot air oven in which these compositions were kept in Petri dishes. Pure orlistat also was subjected to this study. To carry out a comparison with the innovator's formulation Xenical®, its contents were emptied in a Petri dish. The observations of this study are given below—

The conditions of data set [2]: within the physiological pH range; cited from earlier work.

Consider `CCCCCCCCCCC[C@@H](C[C@@H]1OC(=O)[C@H]1CCCCCC)OC(=O)[C@H](CC(C)C)NC=O` [Orlistat, orlistat], for which the “Appearance and handling properties at elevated temperature” value in data set [1] (30 ° C.) was “No change”; in data set [1] (35 ° C., -do- = same as cell above), “-do-”; in data set [1] (37 ° C., -do- = same as cell above) it was “softens”; in data set [1] (40 ° C.), “Starts melting”; in data set [1] (45 ° C., cells wrap: 'Slightly soft and sticky', 'Melts completely'), “Melts”; in data set [1] (50 ° C., -do- = same as cell above, Xenical cell wraps: 'Slightly soft and sticky, becomes powdery on touching'), “-do-”. Moreover, the “Appearance and hardness after heating” value in data set [1] (Cooled down to less than 30° C., cells wrap: 'Regains its original hardness', 'Does not retain its original appearance') is given as “Does not retain”. The solubility in water result in data set [2] is listed as “very low solubility”.
